Data as given in the supplement of paper PMC5579334.

Assays:
HSC1 [1] = assay: relative IC50 (inflection point of fitted dose-response curve, CellTiter-Glo viability, 72 h; top asymptote may be below 50% inhibition); higher = less potent
How it was run: (§1)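 MPNST cell lines and primary human Schwann cells were seeded at 750–1000 cells per well into 384-well plates preprinted with each compound at five concentrations in 10-fold steps, then incubated 72 h at 37 °C, 5% CO2. CellTiter-Glo ATP luminescence gave viability, scaled between vehicle and positive-control wells, with duplicates averaged where present. Curves were fitted with a four-parameter logistic model. Percent inhibition refers to the top concentration, while drug sensitivity score and relative IC50, censored at the top concentration, come from these fits.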

STS26T [2] = assay: as above
How it was run: as §1

HSC2 [3] = assay: as above
How it was run: as §1

S1507-2 [4] = assay: as above
How it was run: as §1

HS-Sch-2 = assay: as above
How it was run: as §1

YST-1 = assay: as above
How it was run: as §1

HS-PSS [5] = assay: as above
How it was run: as §1

ST8814 [6] = assay: as above
How it was run: as §1

S462 = assay: as above
How it was run: as §1

HSC1 [7] = assay: relative IC50 (inflection point of fitted dose-response curve, CellTox-Green cytotoxicity, 72 h; top asymptote may be below 50%); higher = less potent
How it was run: (§2)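 For 72 h at 37 °C, MPNST cell lines and primary human Schwann cells were exposed in 384-well plates to five 10-fold compound dilutions. CellTox-Green, added before seeding at a final 1:1000 dilution, gave fluorescence from DNA released by disrupted cells. Signals were scaled to vehicle and positive-control wells, cultures failing plate quality control were left out, and four-parameter logistic fits were applied. Relative IC50 and drug sensitivity score were derived from the fits, with IC50 censored at the top concentration.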

STS26T [8] = assay: as above
How it was run: as §2

HSC2 [9] = assay: as above
How it was run: as §2

S1507-2 [10] = assay: as above
How it was run: as §2

HS-PSS [11] = assay: as above
How it was run: as §2

ST8814 [12] = assay: as above
How it was run: as §2

Structure (SMILES) | relative IC50 (HSC1 [1]) | relative IC50 (STS26T [2]) | relative IC50 (HSC2 [3]) | relative IC50 (S1507-2 [4]) | relative IC50 (HS-Sch-2) | relative IC50 (YST-1) | relative IC50 (HS-PSS [5]) | relative IC50 (ST8814 [6]) | relative IC50 (S462) | relative IC50 (HSC1 [7]) | relative IC50 (STS26T [8]) | relative IC50 (HSC2 [9]) | relative IC50 (S1507-2 [10]) | relative IC50 (HS-PSS [11]) | relative IC50 (ST8814 [12])
CO[C@H]1C[C@@H]2CC[C@@H](C)[C@@](O)(O2)C(=O)C(=O)N2CCCC[C@H]2C(=O)O[C@H]([C@H](C)C[C@@H]2CC[C@@H](OP(C)(C)=O)[C@H](OC)C2)CC(=O)[C@H](C)/C=C(\C)[C@@H](O)[C@@H](OC)C(=O)[C@H](C)C[C@H](C)/C=C/C=C/C=C/1C [Ridaforolimus] | 0.221 nM | 0.663 nM | 0.319 nM | 1.55 nM | 2.85 nM | 1.02 nM | 1.87 nM | 0.496 nM | 1.26 nM | > 100 nM | > 100 nM | > 100 nM | > 100 nM | > 100 nM | > 100 nM
CC(C)(C)c1cnc(CSc2cnc(NC(=O)C3CCNCC3)s2)o1 [SNS-032] | 5.57 nM | 21 nM | 3.76 nM | 141 nM | 48.5 nM | 38.3 nM | 26.7 nM | 46.6 nM | 10.4 nM | 11.9 nM | 15.9 nM | 6.74 nM | > 10000 nM | 2450 nM | 27.2 nM
CC(C)C[C@H](NC(=O)[C@H](Cc1ccccc1)NC(=O)c1cnccn1)B(O)O [Bortezomib] | 7.32 nM | 11 nM | 6.64 nM | 10.1 nM | 3.47 nM | 10.1 nM | 51.1 nM | 6.3 nM | 5.87 nM | 22.6 nM | 11.2 nM | 21.4 nM | 8.94 nM | 123 nM | 9.88 nM
CC(=O)[C@]1(O)Cc2c(O)c3c(c(O)c2[C@@H](O[C@H]2C[C@H](N)[C@H](O)[C@H](C)O2)C1)C(=O)c1ccccc1C3=O [Idarubicin] | 19.7 nM | 14.4 nM | 22.6 nM | 25.6 nM | 39.7 nM | 8.54 nM | 103 nM | 24.9 nM | 9.47 nM | 107 nM | 10.8 nM | 204 nM | 54.1 nM | 162 nM | 27 nM
CNC(=O)c1cccc(-c2ccc3c(N4CCOC[C@@H]4C)nc(N4CCOC[C@@H]4C)nc3n2)c1 [AZD2014] | 306 nM | 401 nM | 322 nM | 335 nM | 366 nM | 119 nM | 505 nM | 654 nM | 364 nM | > 10000 nM | > 10000 nM | > 10000 nM | > 10000 nM | > 10000 nM | > 10000 nM
COc1cc(Nc2c(C#N)cnc3cc(OCCCN4CCN(C)CC4)c(OC)cc23)c(Cl)cc1Cl [Bosutinib] | 1700 nM | 1270 nM | 1140 nM | 1410 nM | 1600 nM | 2590 nM | 3430 nM | 1460 nM | 1490 nM | 3330 nM | 2950 nM | 3250 nM | 3200 nM | 3310 nM | 2410 nM
